Laboratory results from the supplement of paper PMC10331698.
± gives the standard deviation of the averaged measurements.

What was measured:
Assay in all cases: LOEC (log10 uM (lowest observed effect concentration))
[1] = compound: C=CC(=O)OCC(F)(F)C(F)(F)C(F)(F)C(F)(F)COC(=O)C=C [1H,1H,6H,6H-Perfluorohexane-1,6-diol diacrylate]
Procedure: (§1)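 BioMAP Diversity Plus panel in human primary cell co-cultures, 4 concentrations in duplicate blinded samples. Responses are log10 fold change versus DMSO control, processed with tcpl v2.1.0. A hit is called when responses at any concentration exceed the cutoff (the larger of 3*bmad or log10(1.2)); the lowest observed effect concentration (modl_ga, log10 uM) is reported for hits.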

[2] = compound: FC(F)(I)C(F)(F)C(F)(F)C(F)(F)C(F)(F)C(F)(F)I [1,6-Diiodoperfluorohexane]
Procedure: as §1

[3] = compound: O=C(CC(=O)C(F)(F)C(F)(F)C(F)(F)F)c1cccs1 [(Perfluorobutyryl)-2-thenoylmethane]
Procedure: as §1

[4] = compound: OCCC(F)(F)C(F)(F)C(F)(F)C(F)(F)C(F)(F)C(F)(F)C(F)(F)C(F)(F)F [8:2 Fluorotelomer alcohol]
Procedure: as §1

[5] = compound: OCCCC(F)(F)C(F)(F)C(F)(F)C(F)(F)C(F)(F)C(F)(F)C(F)(F)C(F)(F)F [3-(Perfluorooctyl)propanol]
Procedure: as §1

Perfluoropinacol = compound: OC(C(F)(F)F)(C(F)(F)F)C(O)(C(F)(F)F)C(F)(F)F [Perfluoropinacol]
Procedure: as §1

[6] = compound: OCC(F)(F)C(F)(F)C(F)(F)C(F)(F)C(F)(F)C(F)(F)C(F)(F)C(F)(F)CO [1H,1H,10H,10H-Perfluorodecane-1,10-diol]
Procedure: as §1

Test System	LOEC (log10 uM) [1]	LOEC (log10 uM) [2]	LOEC (log10 uM) [3]	LOEC (log10 uM) [4]	LOEC (log10 uM) [5]	LOEC (log10 uM) (Perfluoropinacol)	LOEC (log10 uM) [6]
CASM3C SAA down	1.3	1.3	1.78	1.78	1.78		
BF4T IL1a down	1.78	1.54 ± 0.34	1.78		1.78		
MyoF PAI1 down	1.3	1.07 ± 0.32		1.3	1.3	1.78	
3C TissueFactor down	1.07 ± 0.32	1.78	1.3	1.54 ± 0.34	1.3	1.3	
BF4T IL8 down		1.3			1.78		
BF4T PAI1 down		1.07 ± 0.32	1.3	1.78	1.3	1.3	1.3
KF3CT PAI1 down	1.3	0.845		1.3	1.07 ± 0.32	1.78	1.78
CASM3C TissueFactor down			0.845	1.78	1.78		
BE3C ICAM1 down	1.54 ± 0.34	1.78	1.3	1.54 ± 0.34	1.78		1.78
CASM3C LDLR down		1.54 ± 0.34	1.54 ± 0.34	1.78	1.78		
3C HLADR down	1.3	1.54 ± 0.34	1.07 ± 0.32	1.3	1.3	1.3	
hDFCGF MMP1 down	1.3	0.845	1.3	1.3	1.3		1.78
MyoF CollagenI down	1.3	0.845	1.3	1.3	1.3	1.78	
BE3C tPA down	1.54 ± 0.34	1.78	1.3	1.3	1.78	1.3	
3C MCP1 down	1.3	1.54 ± 0.34	1.3	1.78	1.3	1.78	
LPS VCAM1 down	1.3	1.54 ± 0.34	1.78	1.07 ± 0.32	1.07 ± 0.32	1.54 ± 0.34	
SAg MCP1 down	1.07 ± 0.32	1.78	1.3	1.78	1.54 ± 0.34	1.54 ± 0.34	
LPS CD40 down	0.845	1.78	1.54 ± 0.34	1.3	1.3	1.3	
BE3C Keratin818 down		1.78	1.3	1.54 ± 0.34	1.78		
MyoF IL8 down	1.3	1.3		1.3	1.3		
BE3C MMP1 down			1.78				
LPS TissueFactor up			1.3				
KF3CT SRB down	1.78	1.07 ± 0.32		1.3	1.3	1.78	1.78
BF4T uPA down	1.78	1.54 ± 0.34	1.54 ± 0.34	1.78	1.54 ± 0.34		
3C ICAM1 down	1.54 ± 0.34	1.78	1.78	1.78	1.3		

Test System	LOEC (log10 uM) [1]	LOEC (log10 uM) [2]	LOEC (log10 uM) [3]	LOEC (log10 uM) [4]	LOEC (log10 uM) [5]	LOEC (log10 uM) (Perfluoropinacol)	LOEC (log10 uM) [6]
4H VEGFRII down	1.54 ± 0.34		1.3	1.54 ± 0.34	1.78	1.54 ± 0.34	
BF4T CD90 down					1.54 ± 0.34		
hDFCGF SRB down	0.845	0.845		1.3	0.845		1.54 ± 0.34
MyoF TIMP1 down	1.3	1.3		1.3	1.3		
MyoF bFGF down	1.3	0.845		1.3	1.3		
3C MIG down	1.3	1.78	1.78		1.78	1.78	
MyoF MMP1 down					1.3		
hDFCGF IL8 down	1.3	0.845		1.3	1.3		1.78
SAg CD38 down	1.3	1.78	1.07 ± 0.32	1.3	1.3	1.3	
CASM3C SRB down	1.78	1.3	1.78	1.78	1.54 ± 0.34	1.78	
hDFCGF PAI1 down	1.3	0.845		1.3	0.845	1.78	1.78
BE3C IL1a down	1.07 ± 0.32	1.78	1.3	1.3	1.78	1.3	
KF3CT MCP1 down	1.07 ± 0.32	0.845		1.3	1.3		1.78
CASM3C MCSF down	1.07 ± 0.32	1.3	1.78	1.54 ± 0.34	1.3	1.78	
CASM3C IL6 down		1.54 ± 0.34	1.78				
4H uPAR down	1.78	1.78	1.78	1.3	1.54 ± 0.34	1.07 ± 0.32	
SAg CD69 down	1.3	1.78	0.845	1.54 ± 0.34	1.54 ± 0.34	1.3	
3C Eselectin down	1.3	1.54 ± 0.34	1.78		1.54 ± 0.34	1.54 ± 0.34	
4H MCP1 down	1.78	1.54 ± 0.34	1.3		1.78	1.54 ± 0.34	
LPS Eselectin down	1.3	1.54 ± 0.34		1.78	0.845	1.78	
hDFCGF SRB up			0.845				
BF4T MMP9 down	1.54 ± 0.34	1.07 ± 0.32	1.3	1.3	1.3		1.78
LPS PGE2 down	1.3						
BE3C SRB down		1.78	1.78	1.3	1.78	1.78	
KF3CT MCP1 up						1.3	

Test System	LOEC (log10 uM) [1]	LOEC (log10 uM) [2]	LOEC (log10 uM) [3]	LOEC (log10 uM) [4]	LOEC (log10 uM) [5]	LOEC (log10 uM) (Perfluoropinacol)	LOEC (log10 uM) [6]
IMphg IL1a down					1.78		1.78
CASM3C TissueFactor up	1.78						
CASM3C uPAR down	1.78	1.78	1.78	1.78	1.78	1.54 ± 0.34	
SAg MIG down	1.3	1.78	1.78	1.78	1.78	1.78	
CASM3C Thrombomodulin up		1.3					
IMphg MCSF down	1.54 ± 0.34	1.78		1.78	1.78	1.54 ± 0.34	1.78
CASM3C IL8 down		1.54 ± 0.34			1.78		
CASM3C HLADR down	1.54 ± 0.34	1.3	1.78	1.3	1.78	1.07 ± 0.32	
LPS TissueFactor down	1.3	1.78		1.78	1.31 ± 0.66	1.78	
3C VCAM1 down	1.3	1.54 ± 0.34	1.3	1.3	1.3	1.78	
3C IL8 down	1.54 ± 0.34	1.54 ± 0.34	0.845	1.78	1.3	1.78	
SAg IL8 down	1.3	1.78	1.07 ± 0.32	1.78	1.78	1.54 ± 0.34	
BF4T MMP1 down		1.78	1.54 ± 0.34		1.78		
CASM3C PAI1 down	1.78	1.78		1.78	1.78		
LPS MCP1 down	1.3	1.78	1.3	1.3	1.07 ± 0.32	1.3	
CASM3C MIG down	0.845	1.3	1.54 ± 0.34	1.78	1.3	1.78	
CASM3C MCP1 down	1.78	1.3	1.78	1.78	1.54 ± 0.34		
IMphg IL8 down		1.78					1.78
KF3CT IL1a down	1.54 ± 0.34	1.3		1.3	0.845		
KF3CT uPA down	1.3	1.3		1.3	1.3		
LPS Thrombomodulin down						1.07 ± 0.32	
KF3CT TIMP2 down	1.07 ± 0.32	1.07 ± 0.32		1.3	1.3	1.78	1.78
3C Thrombomodulin up		1.54 ± 0.34					
3C uPAR down	1.3	1.78	0.845	1.3	1.54 ± 0.34	0.845	
KF3CT ICAM1 up						1.78	

Test System	LOEC (log10 uM) [1]	LOEC (log10 uM) [2]	LOEC (log10 uM) [3]	LOEC (log10 uM) [4]	LOEC (log10 uM) [5]	LOEC (log10 uM) (Perfluoropinacol)	LOEC (log10 uM) [6]
4H SRB down	1.3	1.54 ± 0.34	1.3	1.3	1.3	1.3	
MyoF Decorin down	1.3	1.3		1.3	1.3	1.78	
BF4T ICAM1 down	1.3	1.07 ± 0.32	1.78	1.78	1.3		1.3
BE3C EGFR down	1.54 ± 0.34	1.78	1.31 ± 0.66		1.78		1.78
LPS MCSF down	1.3	1.78		1.04 ± 1	1.3	1.3	
LPS SRB down	1.3	1.78	1.3	1.3	1.3	1.3	
hDFCGF CollagenI down			1.3	1.78			
BF4T Keratin818 down		1.78	1.3		1.54 ± 0.34		
SAg Eselectin down	0.845	1.78	0.845	1.54 ± 0.34	1.78	1.3	
hDFCGF ICAM1 down	0.845	0.845		1.3	1.07 ± 0.32		1.78
BE3C uPA down	1.54 ± 0.34	1.78	1.78	1.78	1.78	1.78	
KF3CT MIG down	1.3	1.07 ± 0.32		1.54 ± 0.34	1.3	1.78	1.78
MyoF SRB down	1.3	0.845		1.3	1.3	1.78	
BF4T MMP3 down		1.3	1.54 ± 0.34		1.78		
hDFCGF TIMP1 down	0.845	1.07 ± 0.32		1.3	1.07 ± 0.32		1.78
KF3CT ICAM1 down	1.3	1.07 ± 0.32		1.3	1.3		1.78
LPS IL8 down	1.3	1.54 ± 0.34		1.54 ± 0.34	0.845		
hDFCGF MCP1 up						1.3	
CASM3C MCP1 up						1.54 ± 0.34	
BF4T SRB down		1.3	1.78	1.54 ± 0.34	1.3		1.78
KF3CT IP10 down	1.3	1.3		1.3	1.3	1.78	
MyoF CollagenIV down	1.3						
hDFCGF EGFR down				1.54 ± 0.34	0.845	1.54 ± 0.34	1.78
